Legend:
[1] = test system: human umbilical vein endothelial cells (HUVECs); assay: BrdUrd labeling assay (proliferation) in HUVECs; format: cell-based; conditions: compared to siCTL control
Protocol: Specifically, human umbilical vein endothelial cells (HUVECs) were inoculated into a medium and cultured, and then further cultured after the medium was treated with siRNA of siCTL or siTGase2 (siTG2) and VEGF as a vascular growth promoting factor. After cells treated with the siRNA and VEGF were cultured, the medium was again treated with bromodeoxyuridine (BudUrd), a BrdUrd labeling assay was performed. For quantification, BrdUrd-positive cells were counted among the cells grown on the medium. For the counted cells, the number of BrdUrd-positive cells in the siCTL-treated and VEGF-untreated groups was used as a reference, and the number of BrdUrd cells in each experimental group was obtained as a relative percentage.

[2] = test system: human umbilical vein endothelial cells (HUVECs); assay: Migration of HUVECs; format: cell-based; conditions: compared to siCTL control
[3] = test system: human umbilical vein endothelial cells (HUVECs); assay: Angiogenesis analysis (tube segments on Matrigel) in HUVECs; format: cell-based; conditions: compared to siCTL control
Protocol: At the same time, an angiogenesis analysis was also performed. Cells were allowed to adhere to the well surface and cultured by inoculating HUVEC cells into Matrigel-coated wells. Cells were further cultured by adding VEGF and each siRNA to the medium, and then tube segments formed were counted using an angiogenesis assay kit.

[4] = test system: renal cancer cell line (ACHN cells and CAKI-1 cells); assay: Trypan blue live cell count, renal cancer cell line (cell line not distinguished); format: cell-based; conditions: 48 h, read-out: cell viability relative to untreated control
Protocol: Specifically, after ACHN cells which are a renal cancer cell (RCC) line and CAKI-1 cells (provided by the National Cancer Center, Korea) were each inoculated into an RPM1640 medium containing 10% FBS and cultured, and then further cultured for 48 hours after being treated with 10 nM rapamycin and/or 10 nM streptonigrin in combination or alone. After the culture, cells were stained by treating respective cells with 0.4% trypan blue, and live and dead cells were sorted and counted. For the number of counted cells, the ratio of the number of relative live cells was calculated based on the number of live cells of an untreated control which had not been treated with rapamycin and streptonigrin.
Specifically, the relative ratio of the number of live cells was calculated in the same manner as in Example <2-1>, using 5 μM of pazopanib and 2 nM of streptonigrin.

[5] = test system: CAKI-1 renal cancer cell line xenograft; assay: CD31 immunohistochemistry of tumors in CAKI-1 xenograft mouse model; format: in vivo, mice
Protocol: Specifically, a mouse model was prepared by xenografting mice with a CAKI-1 cell line which is a renal cancer cell line. And then, the formation of a tumor was observed after administering streptonigrin to the mouse model at a dose of 0.1 mg/kg or 0.2 mg/kg, and breeding the mice. After the xenografting, a biopsy tissue sample was obtained by excising tumor sites, and the level of expression of CD31-positive cells, which are a blood vessel specific marker, was confirmed by immunohistochemically staining the sample.

Compound	proliferation of cells (BrdUrd-positive cells) [1]	migration of cells [2]	angiogenesis degree (tube formation) [3]	viability at 0.01 µM [4]	number of CD31-positive cells with increasing dose ([5]; streptonigrin 0.1 mg/kg or 0.2 mg/kg)	level of CD31-positive cells relative to control ([5]; streptonigrin 0.2 mg/kg, tumor biopsy)
VEGF	sharply increased	sharply increased	sharply increased			
CO[C@H]1C[C@@H]2CC[C@@H](C)[C@@](O)(O2)C(=O)C(=O)N2CCCC[C@H]2C(=O)O[C@H]([C@H](C)C[C@@H]2CC[C@@H](O)[C@H](OC)C2)CC(=O)[C@H](C)/C=C(\C)[C@@H](O)[C@@H](OC)C(=O)[C@H](C)C[C@H](C)/C=C/C=C/C=C/1C [rapamycin]				≥ 90%		
COC1=C(N)C(=O)c2nc(-c3nc(C(=O)O)c(C)c(-c4ccc(OC)c(OC)c4O)c3N)ccc2C1=O [streptonigrin]				≥ 65%	decreased	about 20%

— patent US20200237738A1, “PHARMACEUTCAL COMPOSITION FOR PREVENTING OR TREATING CANCER, CONTAINING STREPTONIGRIN AND RAPAMYCIN AS ACTIVE INGREDIENTS” (MD BIOLAB CO., LTD., priority 2017, published 2020)
